87 compounds from PMC12040169 (PLOS Biology, 2025) can be followed below.

The series in a line: in vitro. The settings on record: human, hela cells, % viability.
For the compound `N#Cc1c2c(c(-c3ccccc3)[nH]c1=O)CCCC2` [CBK287905], the viability (in general, a read-out of living cells in per cent, often relative to untreated cells) at 28.5 h, 10 µM worked out at 91.6%.

In the case of `O=c1cc(O)c2c(=O)[nH]c(=O)n(-c3ccccc3)c2[nH]1` [CBK287907], the viability at 28.5 h, 10 µM was determined as 88.2%. As for `COc1ccc(C2=NNC(=O)C(c3ccc(OC)cc3)C2)cc1` (stereo not drawn) [CBK287908], the viability at 28.5 h, 10 µM worked out at 99.7%. As to `COc1ccc(C2CC(=O)c3c(C)n[nH]c3C2)cc1` (stereo not drawn) [CBK287911], the viability at 28.5 h, 10 µM was found to be 114%.

With `CN(C)CCCn1cnc2c1c(=O)[nH]c(=O)n2C` [CBK287913], the viability at 28.5 h, 10 µM came out at 92.2%. The result for `Cc1cc(C)nc(Nc2ncc(O)n2-c2ccccc2)n1` [CBK287914] reads 93.5%. With `CCN(CC)CCNc1nc2c(=O)[nH]c(=O)n(C)c2[nH]1` [CBK287918], the viability at 28.5 h, 10 µM was found to be 116%. On to `Cc1[nH]nc2c1C(c1ccc(Cl)cc1)N(CCc1c[nH]c3ccccc13)C2=O` (stereo not drawn) [CBK287919], for which the viability at 28.5 h, 10 µM is 114%. The result for `CC1=Nc2c(cnn2-c2ccccc2)C2=NCCCN12` [CBK287928] reads 91.6%; that for `Cc1c(C)n(Cc2cccnc2)c2ncn(C3CCCCCC3)c(=N)c12` [CBK287932], 85.9%; that for `OCCNc1ncnc2c1ncn2Cc1ccccc1` [CBK287933], 106%. With `COc1cc(/C=C/c2cc(C(F)(F)F)[nH]c(=O)n2)c(Cl)cc1O` [CBK287936], the viability at 28.5 h, 10 µM turned out to be 80%. For `CCCCC(=O)/N=C(\N)Nc1nc2ccccc2o1` [CBK287937], the viability at 28.5 h, 10 µM came to 87.8%. Under `Cc1cc(Cl)ccc1OCC(=O)Nc1nnc[nH]1` [CBK287940] stands 86.3%; under `COc1cccc(C2=CC(c3ccccc3Cl)N3N=NNC3=N2)c1` (stereo not drawn) [CBK287943], 84.4%; under `c1ccc(Oc2nc3ccccc3n3cnnc23)cc1` [CBK287945], 91.9%.

`O=C(COc1ccccc1Cl)Nc1nnc[nH]1` [CBK287946]: the viability at 28.5 h, 10 µM was determined as 80.1%. Under `CC(C)c1nc2c(c(=O)c3ccccc3n2C)c(=O)n1-c1ccccc1` [CBK287947] stands 97.6%; under `CC1CCCN(c2ncnc3c2[nH]c2ccccc23)C1` (stereo not drawn) [CBK287948], 106%; under `CCc1cccc(C)c1N(C(=O)Cn1c(=O)[nH]c2ccccc21)C(C)COC` (stereo not drawn) [CBK287950], 80.1%. With `CN1CCc2c(c(NCC3CCCO3)nc3[nH]nc(N)c23)C1` (stereo not drawn) [CBK287955], the viability at 28.5 h, 10 µM is 103%. Turning to `Cc1cc(C)c2c3c(sc2n1)C(=O)N(C)CC(=O)N3` [CBK287959], the viability at 28.5 h, 10 µM was found to be 83.8%. On to `COc1ccccc1Nc1nc(C)cc(C)c1C(N)=O` [CBK287960], for which the viability at 28.5 h, 10 µM came to 82.7%.

Regarding `CCc1c(C)nc2c(-c3ccc(OC)c(OC)c3)cnn2c1O` [CBK287962], the viability at 28.5 h, 10 µM amounted to 87%. Consider `CC(C)c1nc(-c2cc3ccccc3nc2O)no1` [CBK287964], for which the viability at 28.5 h, 10 µM is 112%. For `Cc1ccc(-n2c3nc(=O)[nH]c(=O)c-3cc3c(Cl)cccc32)c(C)c1` [CBK287965], the viability at 28.5 h, 10 µM came to 83.3%. As to `COc1ccc(C2=CC(c3ccc(Cl)cc3)N3N=CNC3=N2)cc1OC` (stereo not drawn) [CBK287966], the viability at 28.5 h, 10 µM worked out at 84.3%. The result for `O=C(c1ccccc1)c1cn[nH]c1-c1ccccc1O` [CBK287970] reads 77.8%; that for `O=C(Nc1ccncc1)C1(c2ccccc2)CCCC1` [CBK287972], 111%; that for `c1cncc(-c2noc(-c3cc(C4CC4)[nH]n3)n2)c1` [CBK287973], 94.7%.

Take `CC(=O)Nc1ccc(-c2nc3cnccc3o2)cc1` [CBK287975]: the viability at 28.5 h, 10 µM came to 85.9%. As to `c1csc(-c2ccn3c(n2)nc2ccccc23)c1` [CBK287976], the viability at 28.5 h, 10 µM stood at 83.9%. For the compound `Cc1nc(-c2ccccc2F)sc1C(=O)Nc1ccccn1` [CBK287979], the viability at 28.5 h, 10 µM came out at 98.8%.

In the case of `C=C(C)Cn1c(=O)nc(N)c2c3c(sc21)CCC3` [CBK287986], the viability at 28.5 h, 10 µM stood at 88.2%.

For `COc1ccc(-c2cnn3c(N)c4c(nc23)CCC4)cc1` [CBK287987], the viability at 28.5 h, 10 µM came out at 97.4%. Under `O=C(CCc1nc2ccccc2s1)Nc1nc2ccccc2[nH]1` [CBK287988] stands 114%; under `O=C(Nc1ccccn1)c1cc(O)c(OCc2ccccc2)cn1` [CBK287989], 89.5%. `O=C(NC1CCCC1)c1ccc2c(=O)[nH]cnc2c1` [CBK287990]: the viability at 28.5 h, 10 µM is 90.1%. Regarding `COc1ccc(C2(C(=O)NCc3ccncc3)CCOCC2)cc1` [CBK287991], the viability at 28.5 h, 10 µM was found to be 103%. In the case of `COc1cnc(C(=O)NCc2ccccc2Cl)cc1O` [CBK287993], the viability at 28.5 h, 10 µM is 84.6%.

Turning to `O=C(Nc1ccccc1-n1cnnn1)c1ccccc1Cl` [CBK287994], the viability at 28.5 h, 10 µM came to 95%.

For `COc1ccccc1CCC(=O)Nc1cnn(C)c1` [CBK287995], the viability at 28.5 h, 10 µM worked out at 117%. Under `Cc1ccc(C2CC(=O)Nc3nc(-c4ccccc4)[nH]c(=O)c32)c(C)c1` (stereo not drawn) [CBK287998] stands 108%; under `O=c1[nH]cnc2c1cnn2Cc1ccccc1Cl` [CBK287999], 97.1%. The result for `O=C1CC(c2cc(F)ccc2F)c2c(-c3ccc(Cl)cc3)n[nH]c2N1` (stereo not drawn) [CBK288000] reads 110%.

Take `Nc1cc(=O)[nH]c(=O)n1Cc1ccc(Cl)cc1` [CBK288002]: the viability at 28.5 h, 10 µM turned out to be 112%.

Consider `COc1cccc(CNC(=O)CCc2nc3ccccc3[nH]2)c1` [CBK288003], for which the viability at 28.5 h, 10 µM is 115%. Regarding `Cc1ccc(OCC(=O)Nc2ccc3c(c2)nc2n3CCOC2)cc1` [CBK288005], the viability at 28.5 h, 10 µM came out at 102%.

Turning to `CCCCc1ccc(Nc2ncnc3nc[nH]c23)cc1` [CBK288006], the viability at 28.5 h, 10 µM was 96.3%. As to `O=c1[nH]c2ccccc2n1CCOc1ccccc1` [CBK288008], the viability at 28.5 h, 10 µM was 98.5%. With `Cc1c(-c2cc(-c3cnn(C)c3C)[nH]n2)cnn1C` [CBK288013], the viability at 28.5 h, 10 µM stood at 76%. Under `CCNc1nnc(-c2c(Cl)c(C)nn2C)s1` [CBK288014] stands 92.5%; under `Cc1c(C2CC(C(F)(F)F)n3nccc3N2)cnn1C` (stereo not drawn) [CBK288015], 93.9%; under `O=C(Nc1ccncc1)c1c(O)c2ccccc2[nH]c1=O` [CBK288017], 112%. The result for `Cc1ccc(C)c(-c2nc(-c3cccnc3)no2)c1` [CBK288018] reads 102%; that for `CCCCNc1nnc(-c2cc(C)nn2C)s1` [CBK288019], 91.5%; that for `Cc1cc(F)ccc1NC(=O)c1n[nH]cc1Cl` [CBK288020], 92.4%.

Turning to `CCCCNc1nnc(-c2nn(C)cc2Cl)s1` [CBK288021], the viability at 28.5 h, 10 µM was determined as 79.4%. Under `O=C(O)c1cc(-c2ccc(OC(F)F)cc2)[nH]n1` [CBK288022] stands 87.1%; under `O=C(Nc1ccn(C23CC4CC(CC(C4)C2)C3)n1)c1ccco1` [CBK288023], 106%. The result for `O=c1c2[nH]cc(-c3ccccc3)c2ncn1CCc1ccccc1` [CBK288025] reads 76.9%; that for `O=c1[nH]nc2c3c(nc(-c4ccncc4)n12)CCCC3` [CBK288029], 109%; that for `O=C(NCc1ccccn1)c1nn[nH]c1Nc1cccc(Cl)c1` [CBK288030], 79.4%.

As for `O=C(O)Cc1cnnn1-c1ccc(Cl)cc1Cl` [CBK288035], the viability at 28.5 h, 10 µM is 86%.

For `COc1ccc(CNc2nc(C)n[nH]2)cc1Cl` [CBK288036], the viability at 28.5 h, 10 µM was determined as 98.9%. For `Cc1n[nH]c(NCc2cccc(Cl)c2Cl)n1` [CBK288037], the viability at 28.5 h, 10 µM is 107%. The result for `O=C(O)c1nnn(-c2ccccc2)c1-c1ccncc1` [CBK288041] reads 95.1%; that for `O=C1CC(c2noc(-c3ccncc3)n2)CN1c1ccccc1` (stereo not drawn) [CBK288043], 85.4%. For the compound `CN(C(=O)CSc1ncccc1C#N)c1ccccc1` [CBK288044], the viability at 28.5 h, 10 µM was 98.3%. Under `COc1ccccc1NC(=O)c1cn(Cc2ccc(N)cc2)cn1` [CBK288045] stands 99.5%; under `COc1ccc(Cn2cnc3[nH]ncc3c2=O)cc1` [CBK288049], 91.7%. The result for `O=c1[nH]c2n[nH]c(=O)n2c2c(-c3ccccc3)c[nH]c12` [CBK288054] reads 84.2%.

Take `Cc1ccc(Sc2nccn3c(=O)[nH]nc23)c(C)c1` [CBK288055]: the viability at 28.5 h, 10 µM came to 101%.

Turning to `Cc1noc(C2=CC=CN3C2=NNC32CCNCC2)n1` [CBK288058], the viability at 28.5 h, 10 µM came out at 91%. The result for `COc1cccc(C2C=C(c3cccnc3)Nc3ncnn32)c1OC` (stereo not drawn) [CBK288062] reads 95.1%; that for `O=C(NCc1nnc2ccccn12)c1ccccc1` [CBK288064], 110%; that for `COc1ccc(C(C)NC(=O)c2cn[nH]c2-c2ccc(Cl)cc2)cc1` (stereo not drawn) [CBK288065], 102%. Under `CCOc1ccc(Nc2cc(Cl)nc(N)n2)cc1` [CBK288069] stands 98.7%; under `O=C(CC1C(=O)Nc2ncnn21)Nc1ccccc1` (stereo not drawn) [CBK288071], 90.7%. The result for `O=c1c2nnc3ncnn3c2ccn1-c1ccccc1` [CBK288075] reads 99.5%; that for `COc1cc(-c2nc(N)n[nH]2)cc(OC)c1OC` [CBK288077], 103%.

Consider `Fc1ccc(C2=Nn3cnnc3SC2)c(F)c1` [CBK288078], for which the viability at 28.5 h, 10 µM is 97%. In the case of `COc1ccc(NC2=NN(c3ccccc3)C(=O)C2)cc1` [CBK288085], the viability at 28.5 h, 10 µM came to 104%. Consider `Cc1nn(-c2ccccc2)c(Cl)c1C1NC(=O)c2c(sc(C)c2C)N1` (stereo not drawn) [CBK288086], for which the viability at 28.5 h, 10 µM worked out at 96%. Regarding `CCOc1cc(CNc2nc[nH]n2)cc(Cl)c1OCc1ccccc1F` [CBK288088], the viability at 28.5 h, 10 µM was 103%. Consider `CCCCn1nnnc1NCc1cccc(OC)c1OC` [CBK288091], for which the viability at 28.5 h, 10 µM stood at 104%. Regarding `Cc1nc2c3c(sc2c(=O)[nH]1)NC(=O)CC3c1ccccc1` (stereo not drawn) [CBK288094], the viability at 28.5 h, 10 µM is 93.1%.
